Laboratory results taken from patent US20130338155A1, “METHOD FOR TREATING INFECTIONS” (SYNTA PHARMACEUTICALS CORP., priority 2006, published 2013).

Tests used:
Her2 = experiment: Degradation of Her2 in BT-474 cells (Method 1, Western blot); format: cell-based, Human; details: overnight, FIG. 2
Method: Human high-Her2 breast carcinoma BT474 (HTB-20), SK-BR-3 (HTB-30) and MCF-7 breast carcinoma (HTB-22) from American Type Culture Collection, Va., USA were grown in Dulbecco's modified Eagle's medium with 4 mM L-glutamine and antibiotics (100 IU/ml penicillin and 100 ug/ml streptomycine; GibcoBRL). To obtain exponential cell growth, cells were trypsinized, counted and seeded at a cell density of 0.5×10^6 cells/ml regularly, every 3 days. All experiments were performed on day 1 after cell passage.
BT-474 cells were treated with 0.5 μM, 2 μM, or 5 μM of 17AAG (a positive control) or 0.5 μM, 2 μM, or 5 μM of Compound 108 or Compound 49 overnight in DMEM medium. After treatment, each cytoplasmic sample was prepared from 1×10^6 cells by incubation of cell lysis buffer (#9803, cell Signaling Technology) on ice for 10 minutes. The resulting supernatant used as the cytosol fractions were dissolved with sample buffer for SDS-PAGE and run on a SDS-PAGE gel, blotted onto a nitrocellulose membrane by using semi-dry transfer. Non-specific binding to nitrocellulose was blocked with 5% skim milk in TBS with 0.5% Tween at room temperature for 1 hour, then probed with anti-Her2/ErB2 mAb (rabbit IgG, #2242, Cell Signaling) and anti-Tubulin (T9026, Sigma) as, housekeeping control protein. HRP-conjugated goat anti-rabbit IgG (H+L) and HRP-conjugated horse anti-mouse IgG (H+L) were used as secondary Ab (#7074, #7076, Cell Signaling) and LumiGLO reagent, 20× Peroxide (#7003, Cell Signaling) was used for visualization.

Hsp90 protein = experiment: Malachite Green Assay of ATPase activity of Hsp90 protein; format: biochemical; details: 37° C. for 4 hours, FIG. 1
Method: Hsp90 protein was obtained from Stressgen (Cat#SPP-770). Assay buffer: 100 mM Tris-HCl, Ph7.4, 20 mM KCl, 6 mM MgCl2. […] Malachite green reagent was added to the reaction. […] The plate was read by an ELISA reader with an absorbance at 620 nm.

Structure (SMILES)	degradation of Her2 (Her2; 0.5 μM)	degradation of Her2 (Her2; 2 μM)	degradation of Her2 (Her2; 5 μM)	inhibition of ATPase activity of Hsp90 (Hsp90 protein; 4 μM)	inhibition of ATPase activity of Hsp90 (Hsp90 protein; 40 μM)
CCc1cc(-c2nnc(S)n2-c2cccc3ccccc23)c(O)cc1O [Compound 49, 3-(2,4-Dihydroxy-5-ethyl-phenyl)-4-(naphthalen-1-yl)-5-mercapto-triazole]	partial degradated	complete degradation	complete degradation		
Oc1ccc(-c2nnc(S)n2-c2cccc3ccccc23)c(O)c1 [Compound 108, 3-(2,4-Dihydroxy-phenyl)-4-(naphthalen-1-yl)-5-mercapto-triazole]	partially degradated	partially degradated	almost completely degraded	significant inhibition	even greater inhibition of ATPase activity of Hsp90 than geldanamycin
